The results in this text go back to patent US5869500A, “Pyridone compounds useful in treating Alzheimer's disease” (Hoffmann-La Roche Inc., priority 1996, dated 1999).

Assay [1] has as its system Aβ production in HEK cells over-expressing mutated β-APP (SFAD). Briefly: Aβ production inhibition, sandwich-ELISA in HEK cells, over-expressed mutated β-APP (SE-SFAD). Type of assay: cell-based, human. As to conditions: Homo sapiens, HEK293, HEK cells; for IC50: based on the respective plateau of maximum inhibition; for Emax: maximum inhibition plateau, read-out: SE-SFAD max. inhibition %. The method in brief: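 HEK cells expressing recombinant human wild-type or mutated (SFAD) β-APP treated with compound for 24 to 48 hours at 37° C, 10% CO2. IC50 based on plateau of maximum inhibition.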
Background: ELISA stands for enzyme-linked immunosorbent assay.

In assay [2] the test system is Aβ production in HEK cells over-expressing Wild type β-APP. Briefly: Aβ production inhibition, sandwich-ELISA in HEK cells which over-express Wild type β-APP (SE-WT). The class given is cell-based, human. The following applies: Homo sapiens; for IC50: HEK293, based on the respective plateau of maximum inhibition; for Emax: HEK293, maximum inhibition plateau, read-out: SE-WT max. inhibition %. How it is done:
The effect of test substances on the inhibition of Aβ-amyloid production can be measured in the supernatant of cell cultures of β-APP expressed cells using ELISA tests or other quantitative determination methods for β-APP degradation products. Typically, 8×10^5 cells (e.g. HEK cells, which express recombinant human β-APP variants) are plated out in each well of a culture dish having 24 wells in growth media such as e.g. OPTIMEM (Gibco) and the test compound is then added. After an incubation period of 24 to 48 hours at 37° C. in a 10% CO2 atmosphere the supernatant is removed from the cell cultures and the β-APP degradation products (e.g. Aβ or β-[…]) are determined with the aid of ELISA (or sandwich ELISA) analysis or by means of quantitative immunoprecipitation (after metabolic radiolabelling of the cell proteins). Typically, 300 μl of the cell supernatant are tested according to the state of the art for ELISA tests in culture dishes having 96 wells. In the case of sandwich ELISA for Aβ, the binding antibody can be directed against the first 16 amino acids of Aβ-peptide (e.g. 6E10 Senetek, Maryland Heights, Mo.) and the detection antibody can be directed against amino acids 17-40 or 17-42 of Aβ and carries a detection system such as e.g. peroxidase. A simple ELISA test with an antibody, e.g. 22C11 (Boehringer Mannheim), can be used as the test for […]; the second antibody can be an anti-(mouse) Ig having a detection system, such as e.g. peroxidase. The peroxidase reaction can be carried out e.g. using a TMB substrate (BioRAD) and the measurements can be carried out at 650 nm using an ELISA reading apparatus. […] SE-SFAD signifies the Aβ production inhibition measured using sandwich-ELISA in HEK cells, SFAD signifies over-expressed mutated β-APP, and SE-WT signifies the Aβ production inhibition measured using sandwich-ELISA in HEK cells which over-express Wild type β-APP. The IC50 values are based on the respective plateau of maximum inhibition.

Structures can show the parent of a compound that is named as a salt.

The IC50 is the midpoint of a concentration-inhibition curve. The low end stands for greater potency in that assay, the high end for weaker potency in that assay. `COCCN(C(=O)c1cc(-c2ccccc2)c(=O)n2ccc3ccsc3c12)c1ccccc1` [Compound 23, 7-Oxo-8-phenyl-7H-thieno[2,3-a]quinolizine-10-carboxylic acid (2-methoxy-ethyl)phenyl-amide]: in assay [1], the IC50 came to 6.7 µM and the Emax came out at 100%. In addition, in assay [2], the IC50 is 3.4 µM and the Emax worked out at 100%.
Consider `CN(CC1CCCO1)C(=O)c1cc(-c2ccccc2)c(=O)n2ccc3ccsc3c12` (stereo not shown) [Compound 24, 7-Oxo-8-phenyl-7H-thieno[2,3-a]quinolizine-10-carboxylic acid methyl-(tetrahydrofuran-2-yl-methyl)-amide], for which, in assay [1], the IC50 was 7 µM and the Emax came to 40%. Also, in assay [2], the midpoint of inhibition, the IC50, lay at 10 µM and the Emax worked out at 60%.
With `COC1CCCCC1N(C)C(=O)c1cc(-c2ccccc2)c(=O)n2ccc3ccsc3c12` (stereo not shown) [Compound 26, 7-Oxo-8-phenyl-7H-thieno[2,3-a]quinolizine-10-(2-methoxycyclohexyl)-methyl-amide], in assay [1], the IC50 is 5 µM and the Emax stood at 80%. Further, in assay [2], the IC50 turned out to be 1.2 µM and the Emax came to 100%.
Consider `CN1CCC[C@H]1COC(=O)c1cc(-c2ccccc2)c(=O)n2ccc3ccsc3c12` [Compound 28, 1-Methyl-pyrrolidin-2-(S)-yl-methyl 7-oxo-8-phenyl-7H-thieno[2,3-a]-quinolizine-10-carboxylate], for which, in assay [1], the midpoint of inhibition, the IC50, lay at 9 µM and the Emax was determined as 100%. Moreover, in assay [2], the IC50 was found to be 2 µM and the Emax stood at 100%.
For `O=C(OCCN1CCCC1=O)c1cc(-c2ccccc2)c(=O)n2ccc3ccsc3c12` [Compound 29, 2-(2-Oxo-pyrrolidin-1-yl)-ethyl 7-oxo-8-phenyl-7H-thieno[2,3-a]-quinolizine-10-carboxylate], in assay [1], the IC50 amounted to 3 µM and the Emax worked out at 40%. In assay [2], the midpoint of inhibition, the IC50, lay at 4.1 µM and the Emax is 80%.
In the case of `CN(C)C(=O)COC(=O)c1cc(-c2ccccc2)c(=O)n2ccc3ccsc3c12` [Compound 30, Dimethyl-carbamoylmethyl 7-oxo-8-phenyl-7H-thieno[2,3-a]-quinolizine-10-carboxylate], in assay [1], the IC50 amounted to 5 µM and the Emax came to 25%. Further, in assay [2], the midpoint of inhibition, the IC50, lay at 5 µM and the Emax is 60%.
As to `CC(C)C[C@H](N)COC(=O)c1cc(-c2ccccc2)c(=O)n2ccc3ccsc3c12` [Compound 31, 2-(S)-Amino-4-methyl-pentyl 7-oxo-8-phenyl-7H-thieno[2,3-a]-quinolizine-10-carboxylate], the values for the IC50 in assay [1] and in assay [2] were 5.3 µM and 1.2 µM, respectively. For the same molecule, the Emax in assay [1] is 100%; in assay [2], 55%.
Consider `O=C(OCCN1CCOCC1)c1cc(-c2ccccc2)c(=O)n2ccc3ccsc3c12` [Compound 32, 2-Morpholin-4-yl-ethyl 7-oxo-8-phenyl-7H-thieno[2,3-a]quinolizine-10-carboxylate hydrochloride], for which the figures for the IC50 in assay [1] and in assay [2] were 30 µM and 3 µM, respectively. For the same molecule, the Emax in assay [1] and in assay [2] was 100% in each case.
For `COC(=O)c1cc(-c2ccccc2)c(=O)n2ccccc12` [Compound 33, Methyl 4-oxo-3-phenyl-4H-quinolizine-1-carboxylate], in assay [1], half-maximal inhibition (IC50) was put at 6 µM and the Emax was 40%. Also, in assay [2], the IC50 amounted to 5 µM and the Emax amounted to 40%.
In the case of `COC[C@@H]1CCCN1C(=O)c1cc(-c2ccccc2)c(=O)n2ccc3ccsc3c12` [Compound 34, 10-(2-(S)-Methoxymethyl-pyrrolidine-1-carbonyl)-8-phenyl-thieno-[2,3-a]-quinolizin-7-one], in assay [1], inhibition was half-maximal at 9 µM (IC50) and the Emax was 50%. Further, in assay [2], the IC50 stood at 4 µM and the Emax was found to be 60%.
As to `COC[C@H]1CCCN1C(=O)c1cc(-c2ccccc2)c(=O)n2ccc3ccsc3c12` [Compound 35, 10-(2-(R)-Methoxymethyl-pyrrolidine-1-carbonyl)-8-phenyl-thieno-[2,3-a]quinolizin-7-one], in assay [1], the IC50 is 6 µM and the Emax was determined as 50%. In assay [2], the IC50 stood at 3 µM and the Emax worked out at 65%.
For the molecule `COC(=O)c1cc(-c2ccccc2)c(=O)n2ccc3ccc(Cl)cc3c12` [Compound 36, Methyl 10-chloro-4-oxo-3-phenyl-4H-pyrido [2,1-a]isoquinoline-1-carboxylate], the IC50 in assay [1] came to 2.8 µM; in assay [2], 1 µM. Further, the Emax in assay [1] was determined as 40%; in assay [2], 60%.
On the same counts, the results for `COCC1CCCN1C(=O)c1cc(-c2ccccc2)c(=O)n2ccc3ccc(Cl)cc3c12` (stereo not shown) [Compound 37, 10-Chloro-1-(2-methoxymethyl-pyrrolidine-1-carbonyl)-3-phenyl-pyrido [2,1-a]isoquinolin-4-one] are 7 µM, 1 µM, 100% and 70%.
`COC[C@H]1CCCN1C(=O)c1cc(-c2ccccc2)c(=O)n2ccc3ccc(Cl)cc3c12` [Compound 38, 10-Chloro-1-(2-(R)methoxymethyl-pyrrolidine-1-carbonyl)-3-phenyl-pyrido [2,1-a]isoquinolin-4-one]: the results for the IC50 in assay [1] and in assay [2] were 7 µM and 1.5 µM, respectively. The Emax in assay [1] came out at 100%; in assay [2], 70%.
On to `COC1CN(C(=O)c2cc(-c3ccccc3)c(=O)n3ccc4ccsc4c23)C1` [Compound 39, 10-(3-Methoxy-azetidine-1-carbonyl)-8-phenyl-thieno[2,3-a]quinolizin-7-one], for which, in assay [1], half-maximal inhibition (IC50) required 7 µM and the Emax worked out at 30%. Further, in assay [2], inhibition was half-maximal at 6 µM (IC50) and the Emax was determined as 50%.
Turning to `COC1CN(C(=O)c2cc(-c3ccccc3)c(=O)n3ccc4ccc(Cl)cc4c23)C1` [Compound 40, 10-Chloro-1-(3-methoxy-azetidine-1-carbonyl)-3-phenyl-pyrido-[2,1-a]isoquinolin-4-one], in assay [1], the IC50 came to 6.8 µM and the Emax amounted to 100%. In addition, in assay [2], the IC50 came to 7 µM and the Emax is 70%.
`COC1CCN(C(=O)c2cc(-c3ccccc3)c(=O)n3ccc4ccc(Cl)cc4c23)C1` (stereo not shown) [Compound 41, 10-Chloro-1-(3-methoxy-pyrrolidine-1-carbonyl)-3-phenyl-pyrido [2,1-a]isoquinolin-4-one]: in assay [1], the IC50 came to 6 µM and the Emax worked out at 100%. In assay [2], 3.5 µM corresponded to half-maximal inhibition (IC50) and the Emax amounted to 75%.
Take `CCN(CCOC)C(=O)c1cc(-c2ccccc2)c(=O)n2ccc3ccc(Cl)cc3c12` [Compound 42, 10-Chloro-4-oxo-3-phenyl-4H-pyrido[2,1-a]isoquinoline-1-carboxylic acid ethyl-(2-methoxy-ethyl)-amide]: the values for the half-inhibitory concentration (IC50) in assay [1] and in assay [2] were 3 µM and 0.9 µM, respectively. Moreover, the Emax in assay [1] and in assay [2] was 100% in each case.
In the case of `O=C(ON1C(=O)CCC1=O)c1cc(-c2ccccc2)c(=O)n2ccc3ccsc3c12` [Compound 43, 2,5-Dioxo-pyrrolidin-1-yl 7-oxo-8-phenyl-7H-thieno[2,3-a]quinolizine-10-carboxylate], in assay [1], the IC50 came to 2 µM and the Emax was determined as 50%. In assay [2], half-maximal inhibition (IC50) required 5 µM and the Emax was 70%.
`O=C(c1cc(-c2ccc(O)cc2)c(=O)n2ccc3ccsc3c12)N1CCC[C@@H]1CO` [Compound 44, 10-(2-(R)-Hydroxymethyl-pyrrolidine-1-carbonyl)-8-(4-hydroxyphenyl)-thieno[2,3-a]quinolizin-7-one]: the IC50 is 6 µM in assay [1] and 5 µM in assay [2]. The Emax in assay [1] and in assay [2] was 50% in each case.
Take `Cc1cc(C)n(C(=O)c2cc(-c3ccccc3)c(=O)n3ccc4ccsc4c23)n1` [Compound 45, 10-(3,5-Dimethyl-pyrazole-1-carbonyl)-8-phenyl-thieno[2,3-a]-quinolizin-7-one]: the IC50 in assay [1] was found to be 0.9 µM; in assay [2], 0.5 µM. The Emax in assay [1] came to 40%; in assay [2] it was 30%.
The matching figures for `O=C(OCC#CCN1CCOCC1)c1cc(-c2ccccc2)c(=O)n2ccc3ccsc3c12` [Compound 46, 4-(Morpholin-4-yl)-but-2-ynyl 7-oxo-8-phenyl-7H-thieno[2,3-a]-quinolizine-10-carboxylate]: 4 µM, 1 µM, 70% and 50%.
